In patent US20210275657A1, “NEOANTIGENS AND USES THEREOF” (BioNTech US Inc., priority 2018, published 2021):
pIC50, pKd: −log10 of the molar value. Where no end group is shown, it is not given here.

What was measured:
indicated HLA alleles [1] = assay: Affinity of mutant EGFR neopeptides for indicated HLA alleles; type: binding, human
indicated HLA alleles [2] = assay: Stability of mutant EGFR neopeptides with the HLA alleles; type: binding, human
Description: (§1) Multiple peptides containing neoepitopes in the table below were either expressed or loaded onto antigen presenting cells. Mass spectrometry was then performed and the affinity of the neoepitopes for indicated HLA alleles were determined, and the stability of the neoepitopes with the HLA alleles were determined.

indicated HLA alleles [3] = assay: Stability of GATA3 neoORF neoepitopes with the HLA alleles (Example 9, Table 4); type: binding, human
Description: (§2) Multiple peptides containing the neoepitopes in Table 4 below were expressed or loaded onto antigen presenting cells (APCs). Mass spectrometry was then performed and the affinity of the neoepitopes for the indicated HLA alleles and stability of the neoepitopes with the HLA alleles was determined.

HLA-B07:02 [4] = target: T1, HLA-B07:02 (Homo sapiens, UniProt P01889); assay: Affinity measurements, competition with radiolabeled peptide (Example 20); type: binding
indicated HLA alleles [5] = target: indicated HLA alleles (Homo sapiens, UniProt P01889); assay: Affinity of GATA3 neoORF neoepitopes for the indicated HLA alleles (Example 9, Table 4); type: binding
Description: as §2

HLA-B07:02 [6] = target: T1, HLA-B07:02; assay: Stability measurements, pMHC-I dissociation with 125I light chain (Example 20); type: binding
Description: To measure the binding stability of peptides to Class I MHC, synthetic genes encoding biotinylated MHC-I heavy and light chains are expressed in E. coli and purified from inclusion bodies using standard methods. […] These reactions were carried out in streptavidin coated microplates to bind the biotinylated MHC-I heavy chains to the surface and allow measurement of radiolabeled light chain to monitor complex formation. Dissociation was initiated by addition of higher concentrations of unlabeled light-chain and incubation at 37° C. Stability was defined as the length of time in hours it takes for half of the complexes to dissociate, as measured by scintillation counts. Duplicate measurements were performed. The average of the two measurements was taken as the stability.

HLA-B07:02 [7] = target: T1, HLA-B07:02; assay: Detection of GATA3 neoORF peptides by mass spectrometry (Example 8); type: cell-based; settings: 293T cells transduced with GATA3 neoORF lentiviral vector, expressing HLA-B07:02; eluted peptides, MS/MS
indicated HLA alleles [8] = assay: Affinity of GATA3 neoORF neoepitopes for the indicated HLA alleles (Example 9, Table 4); type: binding, human; settings: read-out: Observed MHC affinity
Description: as §2

[9] = system: antigen specific CD8+ T cells; assay: Antigen specific CD8+ T cell induction monitored with pMHC multimers (Example 10); type: cell-based, human; settings: PBMCs from 3 different healthy donors
Description: PBMC samples from a human donor were used to perform antigen specific T cell induction. CD8^+ T cell inductions were analyzed after manufacturing T cells. Cell samples can be taken out at different time points for analysis. pMIHC multimers were used to monitor the fraction of antigen specific CD8^+ T cells in the induction cultures. […] FIG. 9A depicts an exemplary result of a T cell response assay using PBMCs from 6 different healthy donors showing the fraction of antigen specific CD8^+ T cells that responded to […] peptide analyzed by flow cytometry after stimulation or induction. […] FIG. 9B depicts an exemplary result of a T cell response assay using PBMCs from a healthy donor showing fraction of antigen specific CD8^+ T cells that responded to […] peptide analyzed by flow cytometry after stimulation or induction.

HLA-A02:01 = HLA-A02:01 (Homo sapiens, UniProt P04439, D140Y/D185E/D98H/E176V/E277Q/G131W/G231S/I119V/I121R/I166T/I218V/L300P/L318F/N151K/N90K/P208A/P217A/Q86G/Q94H/R138H/R169H/T345S); assay: Detection of GATA3 neoORF peptides by mass spectrometry (Example 8); type: cell-based; settings: 293T cells transduced with GATA3 neoORF lentiviral vector, expressing HLA-A02:01; peptides eluted from HLA-peptide complexes, MS/MS
indicated HLA alleles [10] = target: T2, indicated HLA alleles (Homo sapiens, UniProt P04439); assay: Affinity of GATA3 neoORF neoepitopes for the indicated HLA alleles (Example 9, Table 4); type: binding
Description: as §2

indicated HLA alleles [11] = assay: Stability of mutant BTK neopeptides with the HLA alleles; type: binding, human
Description: as §1

indicated HLA alleles [12] = assay: Affinity of mutant BTK neopeptides for indicated HLA alleles; type: binding, human
Description: as §1

indicated HLA alleles [13] = target: T2, indicated HLA alleles; assay: Stability of mutant BTK neopeptides with the HLA alleles; type: binding; settings: BTK, C481S; HLA A03.01
Description: as §1

indicated HLA alleles [14] = target: T2, indicated HLA alleles; assay: Affinity of mutant BTK neopeptides for indicated HLA alleles; type: binding
Description: as §1

[15] = ovarian carcinoma patients, poly-ICLC with NYESO-1 peptide vaccine (in addition to Montanide), phase 1 study; cited from earlier work

**Q.** Which results are given for IMQLMPFGC?
**A.** pKd (indicated HLA alleles [1]; EGFR_T790M, HLA A02.01): 5.92; Stability (1/2 hr) (indicated HLA alleles [2]; EGFR_T790M, HLA A02.01): 0.3701 h

**Q.** Which “Observed MHC stability” value (indicated HLA alleles [3]; Allele B07:02) does the source give for KPKRDGYMFL here?
**A.** 3.3 h

**Q.** What about the pIC50 (HLA-B07:02 [4]) of the same substance?
**A.** 6.94

**Q.** What about the pKd (indicated HLA alleles [5]) of the same substance?
**A.** 7.01

**Q.** What about the “Experiment 1 half-life” value (HLA-B07:02 [6]) of the same substance?
**A.** 3.3 h

**Q.** What about the “Experiment 2 half-life” value (HLA-B07:02 [6]) of the same substance?
**A.** 3.3 h

**Q.** What about the Average half-life (HLA-B07:02 [6]; average of experiments 1 and 2) of the same substance?
**A.** 3.3 h

**Q.** And the “detected by mass spectrometry” value (HLA-B07:02 [7])?
**A.** detected

**Q.** What does the source list for LIMQLMPFG?
**A.** pKd (indicated HLA alleles [1]; EGFR_T790M, HLA A02.01): 5.48; Stability (1/2 hr) (indicated HLA alleles [2]; EGFR_T790M, HLA A02.01): 0 h

**Q.** With LTSTVQLIM as the substance, how does the pKd (indicated HLA alleles [1]; EGFR T790M, HLA A01.01) read?
**A.** 5.54

**Q.** And the “Stability (1/2 hr)” value (indicated HLA alleles [2]; EGFR T790M, HLA A01.01)?
**A.** 0.1037 h

**Q.** Which “Observed MHC stability” value (indicated HLA alleles [3]; Allele A24:02) does the source give for MFLKAESKI here?
**A.** 0.2 h

**Q.** And the pKd (indicated HLA alleles [8]; Allele A24:02)?
**A.** 6.48

**Q.** With QPVLWTTPPL as the substance, how does the “Observed MHC stability” value (indicated HLA alleles [3]; Allele B07:02) read?
**A.** 1.4 h

**Q.** What about the pKd (indicated HLA alleles [5]) of the same substance?
**A.** 6.96

**Q.** With STVQLIMQL as the substance, how does the pKd (indicated HLA alleles [1]; EGFR_T790M, HLA A02.01) read?
**A.** 5.14

**Q.** And the “Stability (1/2 hr)” value (indicated HLA alleles [2]; EGFR_T790M, HLA A02.01)?
**A.** 0 h

**Q.** Which results are given for VLPEPHLAL [VLPEPHLAL]?
**A.** Observed MHC stability (indicated HLA alleles [3]; Allele A02.01): 1.1 h; pKd (indicated HLA alleles [8]; Allele A02.01): 7.80; healthy donors showing an increase in the fraction of antigen specific CD8+ T cells [9]: one of the three donors; detected by mass spectrometry (HLA-A02:01): detected

**Q.** With VLWTTPPLQH as the substance, how does the “Observed MHC stability” value (indicated HLA alleles [3]; Allele A03:01) read?
**A.** 0.3 h

**Q.** What about the “Observed MHC stability” value (indicated HLA alleles [3]; Allele A11:01) of the same substance?
**A.** 0 h

**Q.** What about the pKd (indicated HLA alleles [8]; Allele A11:01) of the same substance?
**A.** 5.34

**Q.** And the pKd (indicated HLA alleles [10])?
**A.** 7.80

**Q.** With YMANGSLLN as the substance, how does the “Stability (1/2 hr)” value (indicated HLA alleles [11]; BTK_C481S, HLA A02.01) read?
**A.** 0 h

**Q.** And the pKd (indicated HLA alleles [12]; BTK_C481S, HLA A02.01)?
**A.** 5.40

**Q.** Which “Stability (1/2 hr)” value (indicated HLA alleles [11]; BTK, C481S, HLA A01.01) does the source give for YMANGSLLNY here?
**A.** 0.8662 h

**Q.** What about the “Stability (1/2 hr)” value (indicated HLA alleles [13]) of the same substance?
**A.** 0.2791 h

**Q.** What about the pKd (indicated HLA alleles [12]; BTK, C481S, HLA A01.01) of the same substance?
**A.** 7.88

**Q.** What about the pKd (indicated HLA alleles [12]; BTK, C481S, HLA A11.01) of the same substance?
**A.** 6.01

**Q.** What about the pKd (indicated HLA alleles [14]) of the same substance?
**A.** 7.02

**Q.** For poly-ICLC, which “patients showing induction of CD4+ and CD8+ T cell and antibody responses to the peptide” value [15] is on record?
**A.** > 90%
